# Measured values published in patent US20030228357A1, “Dry granulated formulations of azithromycin” (Pfizer Inc., priority 2002, published 2003).
# Legend:
# Format in all cases: physicochemical
# [1] = Tablet friability, Vanderkamp Friabulator (100 rotations/4 minutes)
# Protocol: Friability is a standard test known to one skilled in the art. Friability is measured under standardized conditions by weighing out a certain number of tablets (generally 20 tablets or less), placing them in a rotating Plexiglas drum in which they are lifted during replicate revolutions by a radial lever, and then dropped approximately 8 inches. After replicate revolutions (typically 100 revolutions at 25 rpm), the tablets are reweighed and the percentage of formulation abraded or chipped is calculated. The friability of the tablets, of the present invention, is preferably in the range of about 0% to 3%, and values about 1%, or less, are considered acceptable for most drug and food tablet contexts. Friability which approaches 0% is particularly preferred.
# (§1) All four formulations were compressed on the compaction simulator using either 0.344″×0.688″ oval tooling, or ½″ standard round concave (SRC) tooling. The tablets were tested for hardness (kP scale), using a Schleuniger hardness tablet tester (Dr. Schleuniger Pharmatron AG, Solothurn, Switzerland), and for friability (100 rotations/4 minutes) using a Vanderkamp Friabulator Tablet Tester (Vankel, Cary, N.C., US).
# [2] = Tablet hardness, Schleuniger hardness tablet tester; settings: for Avg Tab Hardness: Short blend
# [3] = Indices of tableting performance (Hiestand) of bulk azithromycin; settings: forms N, M, G, A milled, F and J unmilled
# Protocol: Indices of tableting performance, for several azithromycin forms, were assessed to identify any mechanical deficiencies or attributes that may affect tablet formulation for these azithromycin forms. This assessment was performed in accordance with the procedures described in “Indices of Tableting, Performance” […] and D. P. Smith, Powder Technology 38 [1984] pp. 145-159. Specifically, the Brittle Fracture Index, BFI, was calculated from the ratio of a material's regular tensile strength to its compromised tensile strength. Strain Index, SI, was determined from the dynamic indentation hardness test. Worst Case Bonding Index was determined by assessing the extent of particle bonding remaining after decompression assuming a very short compression dwell time and a plastic mechanism of particle separation during decompression. Tableting Indices were determined for bulk azithromycin lots of six different crystalline forms, specifically forms N, M, G, A, F and J. Forms N, M and G were milled with a Fitzmill (Model JT, The Fitzpatrick Co., Elmhurst, Ill.) using a 0.027'' screen and knives at high speed in an attempt to match the smaller particle size of milled Form A. Unmilled forms F and J were evaluated “as is” due to their relatively small particle sizes.
# [4] = Density and Carr's Compressibility Index (flowability) of dry blends and dry granulations
# Excerpt: Carr's Compressibility Index was used to evaluate the flowability of the four dry granulations. Carr's Compressibility Index is a simple test to evaluate flowability by comparing both the initial and final (tapped) bulk volumes and the rate of packing down. A useful empirical guide to flow is given by Carr's compressibility index: Compressibility Index(%)=[(tapped density−initial density)/tapped density]×100 […] The procedure is described in Int. J. Pharm. Tech. & Prod. Mfr., 6(3) 10-16, 1985.
# [5] = Slug (compact) hardness, Schleuniger hardness tablet tester
# Excerpt: A compaction simulator was used to compress the blends. The compaction simulator was designed as a single station tablet press in which the compression dwell time can be adjusted to simulate different types of tablet presses. All the formulations were slugged on the compaction simulator configured as the Kilian RX-67 press with a dwell time of 0.3145 seconds using […] round flat face tooling. The slugs were then comminuted using a Fitz mill with a 0.125″ screen with knives forward and run at slow speed. […] The slugs were tested for hardness (kP scale), using a Schleuniger hardness tablet tester (Dr. Schleuniger Pharmatron AG, Solothurn, Switzerland).
# [6] = Tablet hardness, Schleuniger hardness tablet tester; settings: for Avg Tablet Hardness: Table 4C, low drug loading, diluent MCC
# Protocol: as §1
# [7] = Tablet friability, Vanderkamp Friabulator (100 rotations/4 minutes); remark: listed apart in the source
# [8] = Table 4C, low drug loading, diluent Lactose, Oval tooling
# [9] = Table 4C, low drug loading, diluent Lactose, SRC (½″) tooling
# [10] = Table 4A, low drug loading (35.2 wt % azithromycin), diluent MCC
# [11] = Table 4B, high drug loading (58.2 wt % azithromycin), diluent MCC
# [12] = Table 7A, 55.76 wt % azithromycin, lactose anhydrous, corn starch, roller compaction 850 psi
# [13] = Table 7A, 55.76 wt % azithromycin, lactose anhydrous, corn starch, roller compaction 850 psi, sesquihydrate
# [14] = Table 4D, high drug loading, diluent MCC, modified capsule shape
# [15] = 35.2 wt % azithromycin, dicalcium phosphate anhydrous diluent, Short blend method
# [16] = 35.2 wt % azithromycin, dicalcium phosphate anhydrous diluent, Short blend method, slugged
# [17] = Table 3A, low drug loading: 35.2 wt % azithromycin, 54.8 wt % dicalcium phosphate anhydrous, long blend
# [18] = Table 4A, low drug loading (35.2 wt % azithromycin), diluent Lactose
# [19] = Table 4B, high drug loading (58.2 wt % azithromycin), diluent Lactose
# [20] = Table 5A, 58.2 wt % azithromycin, dicalcium phosphate dihydrate, disintegrant Explotab
# [21] = Table 5A, 58.2 wt % azithromycin, dicalcium phosphate dihydrate, disintegrant PVP-XL
# [22] = Table 4D, high drug loading, diluent Lactose, modified capsule shape
# [23] = Table 5B, Explotab, 500 mgA, Oval, Precompression 3.5 kN
# [24] = Table 5B, Explotab, 500 mgA, Oval, Precompression No
# [25] = Table 5B, PVP-XL, 250 mgA, Modified Capsule, Precompression No
# [26] = Table 5B, PVP-XL, 600 mgA, Modified Oval, Precompression No
# [27] = Table 3D, high drug loading (58.2 wt % azithromycin), DCP anhydrous, modified capsule shape tablets, target weight 450 mg
# [28] = Table 5B, Explotab, 250 mgA, Modified Capsule, Precompression No
# [29] = Table 5B, PVP-XL, 600 mgA, Modified Oval, Precompression 1.5 kN
smiles,measurement,setting,value
"CCC1OC(=O)C(C)C(O[C@H]2C[C@@](C)(OC)[C@@H](O)C(C)O2)C(C)[C@@H](OC2OC(C)CC(N(C)C)[C@H]2O)[C@@](C)(O)C[C@@H](C)CN(C)[C@H](C)[C@@H](O)[C@]1(C)O (stereo partly shown) [Form H, azithromycin monohydrate hemi-1,2 propanediol solvate]",Friability,[1]; [8],Broken
same,Friability,[1]; [9],0.53%
same,Avg Tablet Hardness,[2]; [8],7.0 kP
same,Avg Tablet Hardness,[2]; [9],7.5 kP
"CC[C@H]1OC(=O)[C@H](C)[C@@H](O[C@H]2C[C@@](C)(OC)[C@@H](O)[C@H](C)O2)[C@H](C)[C@@H](O[C@@H]2O[C@H](C)C[C@H](N(C)C)[C@H]2O)[C@](C)(O)C[C@@H](C)CN(C)[C@H](C)[C@@H](O)[C@]1(C)O [Form G, azithromycin sesquihydrate]",Strain Index (SI),[3]; sesquihydrate,0.0043
same,Tensile Strength,[3]; sesquihydrate,1.03 Mpa
same,Worst Case Bonding Index (BIw) × 10^2,[3]; sesquihydrate,0.8
same,Dry Granulation Carr's Index,[4]; [10],25%
same,Dry Granulation Density As Is,[4]; [10],0.51 g/cc
same,Dry Granulation Density Tapped,[4]; [10],0.68 g/cc
same,Dry Granulation Carr's Index,[4]; [11],25%
same,Dry Granulation Density As Is,[4]; [11],0.53 g/cc
same,Dry Granulation Density Tapped,[4]; [11],0.71 g/cc
same,Dry Granulation Density Tapped,[4]; [12],0.86 g/cc
same,Dry Granulation Carr's Index,[4]; [13],22%
same,Dry Granulation Density As Is,[4]; [13],0.67 g/cc
same,Avg Slug Hardness,[5]; [10],13 kP
same,Avg Slug Hardness,[5]; [11],9 kP
same,Avg Tablet Hardness,[6]; Oval tooling,6.1 kP
same,Avg Tablet Hardness,[6]; SRC (½″) tooling,5.3 kP
same,Friability,"[1]; Table 4C, low drug loading, diluent MCC, Oval tooling",1.30%
same,Friability,"[1]; Table 4C, low drug loading, diluent MCC, SRC (½″) tooling",0.78%
same,Friability,[1]; [14],0.41%
same,Avg Tablet Hardness,[2]; [14],5.8 kP
"CCC1OC(=O)C(C)C(O[C@H]2C[C@@](C)(OC)[C@@H](O)C(C)O2)C(C)[C@@H](OC2OC(C)CC(N(C)C)[C@H]2O)[C@@](C)(O)C[C@@H](C)CN(C)[C@H](C)[C@@H](O)[C@]1(C)O (stereo partly shown) [Form M, azithromycin monohydrate hemi-isopropanol solvate]",Brittle Fracture Index (BFI),[3],0.10
same,Strain Index (SI),[3],0.0048
same,Tensile Strength,[3],0.79 Mpa
same,Worst Case Bonding Index (BIw) × 10^2,[3],1.0
same,Dry Blend Carr's Index,[4]; [15],36%
same,Dry Blend density As Is,[4]; [15],0.68 g/cc
same,Dry Blend density Tapped,[4]; [15],1.08 g/cc
same,Granulation Carr's Index,[4]; [16],28%
same,Granulation Density As Is,[4]; [16],0.82 g/cc
same,Granulation Density Tapped,[4]; [16],1.14 g/cc
same,Granulation Carr's Index,[4]; [17],28%
same,Granulation Density As Is,[4]; [17],0.82 g/cc
same,Granulation Density Tapped,[4]; [17],1.14 g/cc
same,Dry Granulation Carr's Index,[4]; [18],30%
same,Dry Granulation Density As Is,[4]; [18],0.55 g/cc
same,Dry Granulation Density Tapped,[4]; [18],0.78 g/cc
same,Dry Granulation Carr's Index,[4]; [19],29%
same,Dry Granulation Density As Is,[4]; [19],0.53 g/cc
same,Dry Granulation Density Tapped,[4]; [19],0.75 g/cc
same,Dry Granulation Carr's Index,[4]; [20],26%
same,Dry Granulation Density As Is,[4]; [20],0.67 g/cc
same,Dry Granulation Density Tapped,[4]; [20],0.91 g/cc
same,Dry Granulation Carr's Index,[4]; [21],25%
same,Dry Granulation Density As Is,[4]; [21],0.63 g/cc
same,Dry Granulation Density Tapped,[4]; [21],0.84 g/cc
same,Dry Granulation Carr's Index,[4]; [12],24%
same,Dry Granulation Density As Is,[4]; [12],0.62 g/cc
same,Dry Granulation Density Tapped,[4]; [12],0.82 g/cc
same,Avg Slug Hardness,[5]; [15],10.9 kP
same,Avg Slug Hardness,[5]; [17],11 kP
same,Avg Slug Hardness,[5]; [18],13 kP
same,Avg Slug Hardness,[5]; [19],11 kP
same,Avg Slug Hardness,[5]; [20],12 kP
same,Avg Slug Hardness,[5]; [21],13 kP
same,Avg Hardness,"[6]; Table 3C, low drug loading (35.2 wt % azithromycin), DCP anhydrous, oval tablets, target weight 750 mg",8.4 kP
same,Friability,"[1]; Table 2B Run 6, Short blend, Oval tooling, compression force 19.4 kN",capped
same,Friability,"[1]; Table 2B Run 7, Short blend, Oval tooling, compression force 14 kN",capped
same,Friability,[1]; [22],0.28%
same,Friability,[1]; [23],0.50%
same,Friability,[1]; [24],2.71%
same,Friability,[1]; [25],0.25%
same,Friability,[1]; [26],6.34%
same,Avg Tab Hardness,"[2]; Table 2B Run 6, Oval tooling, compression force 19.4 kN",8.4 kP
same,Avg Tab Hardness,"[2]; Table 2B Run 7, Oval tooling, compression force 14 kN",5.1 kP
same,Avg Hardness,[2]; [27],6.1 kP
same,Avg Tablet Hardness,[2]; [22],5.8 kP
same,Avg Hardness,[2]; [28],4.5 kP
same,Avg Hardness,[2]; [23],7.4 kP
same,Avg Hardness,[2]; [24],5.6 kP
same,Avg Hardness,[2]; [25],4.9 kP
same,Avg Hardness,[2]; [29],9.2 kP
same,Avg Hardness,[2]; [26],4.2 kP
same,Friability,[7]; [27],0.45%
same,Friability,[7]; [28],0.33%
same,Friability,[7]; [29],0.34%
